Assay results: ChEMBL document CHEMBL1201862, “PubChem BioAssay data set” (2004)
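Five concentrations, 48 hours, 96-well plates. GI50 is the concentration that inhibits growth by half.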 Calls of active or inactive are those of the source. Rule as the data show it: active = GI50 up to about 1.1 µM and inactive = higher.

Columns and labels:
Experiment in all cases: DTP human tumour cell line panel, 48 h
786-0 = test system: 786-0
SR = test system: SR
UACC-257 = test system: UACC-257
UO-31 = test system: UO-31
CAKI-1 = test system: CAKI-1
OVCAR-5 = test system: OVCAR-5
SF-295 = test system: SF-295
NCI-H226 = test system: NCI-H226
T47D = test system: T47D
KM12 = test system: KM12
OVCAR-8 = test system: OVCAR-8
SK-MEL-5 = test system: SK-MEL-5
RPMI-8226 = test system: RPMI-8226
HOP-92 = test system: HOP-92
SF-268 = test system: SF-268
SNB-19 = test system: SNB-19
OVCAR-4 = test system: OVCAR-4
SK-OV-3 = test system: SK-OV-3
SK-MEL-2 = test system: SK-MEL-2
SF-539 = test system: SF-539
MCF7 = test system: MCF7
A498 = test system: A498
PC-3 = test system: PC-3
EKVX = test system: EKVX
LOX IMVI = test system: LOX IMVI
SW-620 = test system: SW-620
TK-10 = test system: TK-10
COLO 205 = test system: COLO 205
NCI/ADR-RES = test system: NCI/ADR-RES
M14 = test system: M14
MOLT-4 = test system: MOLT-4
A549 = test system: A549
HCT-15 = test system: HCT-15
HOP-62 = test system: HOP-62
MDA-MB-231 = test system: MDA-MB-231
RXF 393 = test system: RXF 393
K562 = test system: K562
BT-549 = test system: BT-549
NCI-H522 = test system: NCI-H522
U-251 = test system: U-251
ACHN = test system: ACHN
HCT-116 = test system: HCT-116
HT-29 = test system: HT-29
Hs-578T = test system: Hs-578T
MDA-N = test system: MDA-N
NCI-H460 = test system: NCI-H460
IGROV-1 = test system: IGROV-1
MDA-MB-435 = test system: MDA-MB-435
CCRF-CEM = test system: CCRF-CEM
NCI-H23 = test system: NCI-H23
SNB-75 = test system: SNB-75
OVCAR-3 = test system: OVCAR-3
Malme-3M = test system: Malme-3M
UACC-62 = test system: UACC-62
SN12C = test system: SN12C
HCC 2998 = test system: HCC 2998

Measured: GI50

CCOC(=O)c1nc2ccccc2nc1NCc1ccc(Cl)cc1Cl
inactive: 786-0 > 100 µM | SR 60.7 µM | UACC-257 > 100 µM | UO-31 > 100 µM | CAKI-1 > 100 µM | OVCAR-5 > 100 µM | SF-295 > 100 µM | NCI-H226 > 100 µM | T47D > 100 µM | KM12 > 100 µM | OVCAR-8 > 100 µM | SK-MEL-5 > 100 µM | RPMI-8226 > 100 µM | HOP-92 > 100 µM | SF-268 > 100 µM | SNB-19 > 100 µM | OVCAR-4 > 100 µM | SK-OV-3 > 100 µM | SK-MEL-2 > 100 µM | SF-539 > 100 µM | MCF7 > 100 µM | A498 > 100 µM | PC-3 > 100 µM | EKVX > 100 µM | LOX IMVI > 100 µM | SW-620 > 100 µM | TK-10 > 100 µM | COLO 205 > 100 µM | NCI/ADR-RES > 100 µM | M14 > 100 µM | MOLT-4 > 100 µM | A549 > 100 µM | HOP-62 > 100 µM | MDA-MB-231 > 100 µM | RXF 393 > 100 µM | K562 > 100 µM | BT-549 > 100 µM | NCI-H522 > 100 µM | U-251 > 100 µM | ACHN > 100 µM | HCT-116 > 100 µM | HT-29 > 100 µM | Hs-578T 65.6 µM | MDA-N 96.8 µM | NCI-H460 35 µM | IGROV-1 > 100 µM | MDA-MB-435 97.9 µM | CCRF-CEM > 100 µM | NCI-H23 > 100 µM | SNB-75 23.6 µM | OVCAR-3 > 100 µM | Malme-3M > 100 µM | UACC-62 > 100 µM
> 100 µM: HCT-15

CC(=O)c1c(N=[N+]=[N-])c2cccc3c2n(c1=O)CCC3
active: OVCAR-8 0.957 µM
inactive: SN12C 22.1 µM | 786-0 14.7 µM | SR 36.7 µM | UACC-257 16.6 µM | UO-31 30.2 µM | CAKI-1 28.3 µM | OVCAR-5 15.2 µM | SF-295 24.7 µM | NCI-H226 22.9 µM | T47D 22.6 µM | KM12 14.6 µM | SK-MEL-5 14.7 µM | RPMI-8226 25.9 µM | HOP-92 31.8 µM | SF-268 18.6 µM | SNB-19 32.3 µM | OVCAR-4 21 µM | SK-OV-3 46.7 µM | SK-MEL-2 21.7 µM | SF-539 27.9 µM | MCF7 19.8 µM | A498 21.3 µM | PC-3 17.3 µM | EKVX 21.3 µM | LOX IMVI 15.1 µM | SW-620 16 µM | TK-10 25.4 µM | COLO 205 21.4 µM | NCI/ADR-RES 19.2 µM | M14 13.6 µM | MOLT-4 23.4 µM | A549 29 µM | HOP-62 20 µM | MDA-MB-231 13.9 µM | RXF 393 20.5 µM | HCC 2998 16.9 µM | K562 21.8 µM | BT-549 20.4 µM | NCI-H522 13.9 µM | U-251 17.3 µM | ACHN 24.9 µM | HCT-116 15.6 µM | HT-29 16.4 µM | Hs-578T 22.9 µM | MDA-N 18.5 µM | NCI-H460 14.4 µM | IGROV-1 20.1 µM | MDA-MB-435 19.1 µM | CCRF-CEM 19.1 µM | NCI-H23 20.8 µM | SNB-75 24.8 µM | OVCAR-3 4.21 µM | Malme-3M 13.2 µM | UACC-62 16.5 µM
19.7 µM: HCT-15
